Test results reported in ChEMBL document CHEMBL4316596, “Antimicrobial Peptides with High Proteolytic Resistance for Combating Gram-Negative Bacteria” (J Med Chem, 2019).

Tests used:
Escherichia coli [1] = assay: Antimicrobial activity against Escherichia coli ATCC 25922 after 24 hrs by NCCLS-protocol based assay; type: functional; conditions: ATCC 25922, 24 h
Escherichia coli [2] = assay: Bactericidal activity against Escherichia coli ATCC 25922 incubated for 4 hrs followed by culture spread on agar plates and cultured overnight in presence of 50% serum albumin; type: functional; conditions: ATCC 25922, 4 h, read-out: MBC>99.9
Escherichia coli [3] = assay: Antimicrobial activity against Escherichia coli 078 after 24 hrs by NCCLS-protocol based assay; type: functional; conditions: Escherichia coli, 078, 24 h
Escherichia coli [4] = assay: Bactericidal activity against Escherichia coli K99 incubated for 4 hrs followed by culture spread on agar plates and cultured overnight; type: functional; conditions: K99, 4 h, read-out: MBC>99.9
Escherichia coli [5] = assay: Bactericidal activity against Escherichia coli UB1005 incubated for 4 hrs followed by culture spread on agar plates and cultured overnight; type: functional; conditions: UB1005, 4 h, read-out: MBC>99.9
Escherichia coli [6] = assay: Bactericidal activity against Escherichia coli K88 incubated for 4 hrs followed by culture spread on agar plates and cultured overnight; type: functional; conditions: K88, 4 h, read-out: MBC>99.9
Salmonella typhimurium [7] = assay: Bactericidal activity against Salmonella typhimurium ATCC 14028 incubated for 4 hrs followed by culture spread on agar plates and cultured overnight; type: functional, Salmonella enterica subsp. enterica serovar Typhimurium; conditions: Salmonella enterica, ATCC 14028, 4 h; read-out: MBC>99.9
Pseudomonas aeruginosa [8] = assay: Bactericidal activity against Pseudomonas aeruginosa 26305 clinical isolates incubated for 4 hrs followed by culture spread on agar plates and cultured overnight; type: functional; conditions: Pseudomonas aeruginosa, 26305, 4 h; read-out: MBC>99.9
Escherichia coli [9] = assay: Bactericidal activity against Escherichia coli ATCC 25922 incubated for 4 hrs followed by culture spread on agar plates and cultured overnight in presence of NaCl; type: functional; conditions: ATCC 25922, 4 h, read-out: MBC>99.9
Pseudomonas aeruginosa [10] = assay: Antimicrobial activity against Pseudomonas aeruginosa 25349 clinical isolates after 24 hrs by NCCLS-protocol based assay; type: functional; conditions: Pseudomonas aeruginosa, 25349, 24 h
Pseudomonas aeruginosa [11] = assay: Bactericidal activity against Pseudomonas aeruginosa PAO1 incubated for 4 hrs followed by culture spread on agar plates and cultured overnight; type: functional; conditions: PAO1, 4 h, read-out: MBC>99.9
[12] = Bactericidal activity against Salmonella pullorum C7913 incubated for 4 hrs followed by culture spread on agar plates and cultured overnight; type: functional, Salmonella enterica subsp. enterica serovar Pullorum; conditions: Salmonella enterica, C7913, 4 h; read-out: MBC>99.9
Escherichia coli [13] = assay: Antimicrobial activity against Escherichia coli UB1005 after 24 hrs by NCCLS-protocol based assay; type: functional; conditions: UB1005, 24 h
[14] = Antimicrobial activity against Salmonella pullorum C7913 after 24 hrs by NCCLS-protocol based assay; type: functional, Salmonella enterica subsp. enterica serovar Pullorum; conditions: Salmonella enterica, C7913, 24 h
Escherichia coli [15] = assay: Antimicrobial activity against Escherichia coli K99 after 24 hrs by NCCLS-protocol based assay; type: functional; conditions: K99, 24 h
Pseudomonas aeruginosa [16] = assay: Bactericidal activity against Pseudomonas aeruginosa ATCC 27853 incubated for 4 hrs followed by culture spread on agar plates and cultured overnight; type: functional; conditions: ATCC 27853, 4 h, read-out: MBC>99.9
Escherichia coli [17] = assay: Bactericidal activity against Escherichia coli ATCC 25922 incubated for 4 hrs followed by culture spread on agar plates and cultured overnight in presence of 25% serum albumin; type: functional; conditions: ATCC 25922, 4 h, read-out: MBC>99.9
Klebsiella pneumoniae [18] = assay: Antimicrobial activity against Klebsiella pneumoniae after 24 hrs by NCCLS-protocol based assay; type: functional
Pseudomonas aeruginosa [19] = assay: Antimicrobial activity against Pseudomonas aeruginosa PAO1 after 24 hrs by NCCLS-protocol based assay; type: functional; conditions: PAO1, 24 h
Pseudomonas aeruginosa [20] = assay: Bactericidal activity against Pseudomonas aeruginosa CICC 21630 clinical isolates incubated for 4 hrs followed by culture spread on agar plates and cultured overnight; type: functional; conditions: CICC 21630, 4 h, read-out: MBC>99.9
Pseudomonas aeruginosa [21] = assay: Antimicrobial activity against Pseudomonas aeruginosa CICC 21625 clinical isolates after 24 hrs by NCCLS-protocol based assay; type: functional; conditions: CICC 21625, 24 h
Klebsiella pneumoniae [22] = assay: Bactericidal activity against Klebsiella pneumoniae incubated for 4 hrs followed by culture spread on agar plates and cultured overnight; type: functional; conditions: read-out: MBC>99.9
Pseudomonas aeruginosa [23] = assay: Antimicrobial activity against Pseudomonas aeruginosa CICC 21630 clinical isolates after 24 hrs by NCCLS-protocol based assay; type: functional; conditions: CICC 21630, 24 h
Escherichia coli [24] = assay: Bactericidal activity against Escherichia coli ATCC 25922 incubated for 4 hrs followed by culture spread on agar plates and cultured overnight in presence of 12.5% serum albumin; type: functional; conditions: ATCC 25922, 4 h, read-out: MBC>99.9
Pseudomonas aeruginosa [25] = assay: Antimicrobial activity against Pseudomonas aeruginosa ATCC 27853 after 24 hrs by NCCLS-protocol based assay; type: functional; conditions: ATCC 27853, 24 h
Escherichia coli [26] = assay: Bactericidal activity against Escherichia coli ATCC 25922 incubated for 4 hrs followed by culture spread on agar plates and cultured overnight in presence of CaCl2; type: functional; conditions: ATCC 25922, 4 h, read-out: MBC>99.9
Pseudomonas aeruginosa [27] = assay: Bactericidal activity against Pseudomonas aeruginosa 25349 clinical isolates incubated for 4 hrs followed by culture spread on agar plates and cultured overnight; type: functional; conditions: Pseudomonas aeruginosa, 25349, 4 h; read-out: MBC>99.9
Escherichia coli [28] = assay: Bactericidal activity against Escherichia coli ATCC 25922 incubated for 4 hrs followed by culture spread on agar plates and cultured overnight in presence of NH4Cl; type: functional; conditions: ATCC 25922, 4 h, read-out: MBC>99.9
Pseudomonas aeruginosa [29] = assay: Bactericidal activity against Pseudomonas aeruginosa CICC 21625 clinical isolates incubated for 4 hrs followed by culture spread on agar plates and cultured overnight; type: functional; conditions: CICC 21625, 4 h, read-out: MBC>99.9
Salmonella typhimurium [30] = assay: Antimicrobial activity against Salmonella typhimurium C7731 after 24 hrs by NCCLS-protocol based assay; type: functional, Salmonella enterica subsp. enterica serovar Typhimurium; conditions: Salmonella enterica, C7731, 24 h
Pseudomonas aeruginosa [31] = assay: Antimicrobial activity against Pseudomonas aeruginosa 26305 clinical isolates after 24 hrs by NCCLS-protocol based assay; type: functional; conditions: Pseudomonas aeruginosa, 26305, 24 h
Escherichia coli [32] = assay: Bactericidal activity against Escherichia coli 078 incubated for 4 hrs followed by culture spread on agar plates and cultured overnight; type: functional; conditions: Escherichia coli, 078, 4 h; read-out: MBC>99.9
Salmonella typhimurium [33] = assay: Antimicrobial activity against Salmonella typhimurium ATCC 14028 after 24 hrs by NCCLS-protocol based assay; type: functional, Salmonella enterica subsp. enterica serovar Typhimurium; conditions: Salmonella enterica, ATCC 14028, 24 h
Escherichia coli [34] = assay: Bactericidal activity against Escherichia coli ATCC 25922 incubated for 4 hrs followed by culture spread on agar plates and cultured overnight in presence of MgCl2; type: functional; conditions: ATCC 25922, 4 h, read-out: MBC>99.9
Acinetobacter baumannii [35] = assay: Bactericidal activity against Acinetobacter baumannii incubated for 4 hrs followed by culture spread on agar plates and cultured overnight; type: functional; conditions: read-out: MBC>99.9
Escherichia coli [36] = assay: Antimicrobial activity against Escherichia coli K88 after 24 hrs by NCCLS-protocol based assay; type: functional; conditions: K88, 24 h
Escherichia coli [37] = assay: Bactericidal activity against Escherichia coli ATCC 25922 incubated for 4 hrs followed by culture spread on agar plates and cultured overnight; type: functional; conditions: ATCC 25922, 4 h, read-out: MBC>99.9
Escherichia coli [38] = assay: Bactericidal activity against Escherichia coli ATCC 25922 incubated for 4 hrs followed by culture spread on agar plates and cultured overnight in presence of FeCl3; type: functional; conditions: ATCC 25922, 4 h, read-out: MBC>99.9
Acinetobacter baumannii [39] = assay: Antimicrobial activity against Acinetobacter baumannii after 24 hrs by NCCLS-protocol based assay; type: functional
Escherichia coli [40] = assay: Bactericidal activity against Escherichia coli ATCC 25922 incubated for 4 hrs followed by culture spread on agar plates and cultured overnight in presence of KCl; type: functional; conditions: ATCC 25922, 4 h, read-out: MBC>99.9
Salmonella typhimurium [41] = assay: Bactericidal activity against Salmonella typhimurium C7731 incubated for 4 hrs followed by culture spread on agar plates and cultured overnight; type: functional, Salmonella enterica subsp. enterica serovar Typhimurium; conditions: Salmonella enterica, C7731, 4 h; read-out: MBC>99.9
Escherichia coli [42] = assay: Bactericidal activity against Escherichia coli ATCC 25922 incubated for 4 hrs followed by culture spread on agar plates and cultured overnight in presence of ZnCl2; type: functional; conditions: ATCC 25922, 4 h, read-out: MBC>99.9

MIC95 (Escherichia coli [1]): 2 µM | MIC95 (Escherichia coli [3]): 2 µM | MIC95 (Pseudomonas aeruginosa [10]): 32 µM | MIC95 (Escherichia coli [13]): 2 µM | MIC95 [14]: 2 µM | MIC95 (Escherichia coli [15]): 2 µM | MIC95 (Klebsiella pneumoniae [18]): 8 µM | MIC95 (Pseudomonas aeruginosa [19]): 4 µM | MIC95 (Pseudomonas aeruginosa [21]): 32 µM | MIC95 (Pseudomonas aeruginosa [23]): 8 µM | MIC95 (Pseudomonas aeruginosa [25]): 8 µM | MIC95 (Salmonella typhimurium [30]): 2 µM | MIC95 (Pseudomonas aeruginosa [31]): 32 µM | MIC95 (Salmonella typhimurium [33]): 4 µM | MIC95 (Escherichia coli [36]): 2 µM | MIC95 (Acinetobacter baumannii [39]): 2 µM
Substance: H-LRPLLRPLLRPLLRPLLRPLLRPL-NH2
MBC (Escherichia coli [2]): 32 µM | MBC (Escherichia coli [4]): 4 µM | MBC (Escherichia coli [5]): 4 µM | MBC (Escherichia coli [6]): 4 µM | MBC (Salmonella typhimurium [7]): 8 µM | MBC (Pseudomonas aeruginosa [8]): 32 µM | MBC (Escherichia coli [9]): 4 µM | MBC (Pseudomonas aeruginosa [11]): 8 µM | MBC [12]: 4 µM | MBC (Pseudomonas aeruginosa [16]): 16 µM | MBC (Escherichia coli [17]): 16 µM | MBC (Pseudomonas aeruginosa [20]): 16 µM | MBC (Klebsiella pneumoniae [22]): 8 µM | MBC (Escherichia coli [24]): 8 µM | MBC (Escherichia coli [26]): > 128 µM | MBC (Pseudomonas aeruginosa [27]): 32 µM | MBC (Escherichia coli [28]): 2 µM | MBC (Pseudomonas aeruginosa [29]): 32 µM | MBC (Escherichia coli [32]): 2 µM | MBC (Escherichia coli [34]): 4 µM | MBC (Acinetobacter baumannii [35]): 4 µM | MBC (Escherichia coli [37]): 2 µM | MBC (Escherichia coli [38]): 4 µM | MBC (Escherichia coli [40]): 2 µM | MBC (Salmonella typhimurium [41]): 8 µM | MBC (Escherichia coli [42]): 2 µM
